From ChEMBL document CHEMBL3046260, “Synthesis of benzo[b][1,4]oxazin-3(4H)-ones via smiles rearrangement for antimicrobial activity” (2011) come the findings set out here.

Experiment [1] relates to Proteus vulgaris. The experiment can be described thus: Antimicrobial activity against Proteus vulgaris ATCC 6896 after 24 hr by two-fold serial dilution method. The format is functional. Particulars: ATCC 6896, 24 h.
Experiment [2] concerns Bacillus spizizenii. In words: Microbiostatic activity against Bacillus subtilis subsp. spizizenii ATCC 6633 after 24 hr.
The test system of experiment [3] is Aspergillus flavus. The experiment can be described thus: Antimicrobial activity against Aspergillus flavus ATCC 10124 after 48 hr by two-foldserial dilution method. In kind it is functional. Particulars: ATCC 10124, 48 h.
Experiment [4] concerns Candida albicans. The experiment can be described thus: Microbiostatic activity against Candida albicans ATCC 76615. The format is functional, organism-based.
Experiment [5] relates to Aspergillus flavus. In words: Microbiostatic activity against Aspergillus flavus ATCC 10124. The format is functional, organism-based.
The subject of experiment [6] is Proteus vulgaris. In words: Microbiostatic activity against Proteus vulgaris ATCC 6896 after 24 hr.
In experiment [7] the test system is Staphylococcus aureus. In words: Antimicrobial activity against Staphylococcus aureus ATCC 25923 after 24 hr by two-fold serial dilution method. In kind it is functional. Particulars: ATCC 25923, 24 h.
Experiment [8] deals with Escherichia coli. The experiment can be described thus: Microbiostatic activity against Escherichia coli ATCC 25922 after […]. The format is functional, organism-based.
The test system of experiment [9] is Pseudomonas aeruginosa. The experiment can be described thus: Antimicrobial activity against Pseudomonas aeruginosa ATCC 27853 after 24 hr by two-fold serial dilution method. In kind it is functional. Particulars: ATCC 27853, 24 h.
Experiment [10] relates to Candida albicans. In words: Antimicrobial activity against Candida albicans ATCC 76615 after 48 hr by two-fold serial dilution method. The format is functional. The settings on record: ATCC 76615, 48 h.
The subject of experiment [11] is Escherichia coli. The experiment can be described thus: Antimicrobial activity against Escherichia coli ATCC 25922 after 24 hr by two-fold serial dilution method. In kind it is functional. Particulars: ATCC 25922, 24 h.
Experiment [12] concerns Pseudomonas aeruginosa. The experiment can be described thus: Microbiostatic activity against Pseudomonas aeruginosa ATCC 27853 after 24 hr.
Experiment [13] concerns Bacillus spizizenii. The experiment can be described thus: Antimicrobial activity against Bacillus subtilis subsp. spizizenii ATCC 6633 after 24 hr by two-fold serial dilution method. Particulars: ATCC 6633, 24 h. In kind it is functional.
The test system of experiment [14] is Staphylococcus aureus. In words: Microbiostatic activity against Staphylococcus aureus ATCC 25923 after 24 hr.

Broadly, the MIC is the lowest concentration that inhibits growth of the organism.

In brackets after ≈: the same amount, converted by molar mass. Activity calls are given as the source filed them. The rule behind the calls is not given here.

On to `O=C1COc2cc(Cl)ccc2N1Cc1ccccc1`, for which the minimum inhibitory concentration (MIC) in [1] amounted to 64 µg/mL (≈ 234 µM); in experiment [3] it was 128 µg/mL (≈ 468 µM); in [7], 64 µg/mL (≈ 234 µM); in experiment [9], 16 µg/mL (≈ 58.5 µM); in experiment [10] it was 128 µg/mL (≈ 468 µM); in [11], 64 µg/mL (≈ 234 µM). The same molecule displayed a minimal inhibitory concentration (MIC) in experiment [13] of 32 µg/mL (≈ 117 µM). Further, the result in [2], in experiment [4], in [5], in experiment [6], in [8] and in [12] was Active. Further, the result in [14] was Active.

As to `CCCCCCN1C(=O)COc2cc(F)ccc21`, the MIC was determined as 16 µg/mL (≈ 63.7 µM) in experiment [1]; 128 µg/mL (≈ 509 µM) in experiment [3]; 32 µg/mL (≈ 127 µM) in experiment [7]; 128 µg/mL (≈ 509 µM) in experiment [9]; 128 µg/mL (≈ 509 µM) in experiment [10]; 16 µg/mL (≈ 63.7 µM) in experiment [11]. The MIC in [13] turned out to be 32 µg/mL (≈ 127 µM). Besides, the outcome in [2], in [4], in [5], in experiment [6], in [8] and in [12] was Active. In addition, the outcome in experiment [14] was Active.

`O=C1COc2ccc(Cl)cc2N1C1CCCCC1`: the MIC worked out at 16 µg/mL (≈ 60.2 µM) in experiment [1]; 32 µg/mL (≈ 120 µM) in experiment [3]; 128 µg/mL (≈ 482 µM) in [7]; 64 µg/mL (≈ 241 µM) in experiment [9]; 32 µg/mL (≈ 120 µM) in experiment [10]; 128 µg/mL (≈ 482 µM) in experiment [11]. Moreover, 32 µg/mL (≈ 120 µM) was the least that counted as inhibitory in [13] (MIC). Besides, the result in [2], in [4], in [5], in [6], in experiment [8] and in experiment [12] was Active. Moreover, the result in experiment [14] was Active.

With `O=C1COc2cc(Cl)ccc2N1C1CCCCC1`, the minimum inhibitory concentration (MIC) was 64 µg/mL (≈ 241 µM) in [1]; 128 µg/mL (≈ 482 µM) in experiment [3]; 64 µg/mL (≈ 241 µM) in [7]; 32 µg/mL (≈ 120 µM) in experiment [9]; 256 µg/mL (≈ 963 µM) in experiment [10]; 32 µg/mL (≈ 120 µM) in experiment [11]. Besides, in experiment [13], the MIC was determined as 64 µg/mL (≈ 241 µM). The outcome in [2], in [4], in experiment [5], in experiment [6], in experiment [8] and in experiment [12] was Active. For the same molecule, the outcome in experiment [14] was Active.

On to `O=C1COc2cc(F)ccc2N1C1CCCCC1`, for which the minimal inhibitory concentration (MIC) was 16 µg/mL (≈ 64.2 µM) in experiment [1]; 64 µg/mL (≈ 257 µM) in experiment [3]; 16 µg/mL (≈ 64.2 µM) in [7]; 16 µg/mL (≈ 64.2 µM) in [9]; 256 µg/mL (≈ 1030 µM) in experiment [10]; 16 µg/mL (≈ 64.2 µM) in [11]. In experiment [13], this molecule had a minimal inhibitory concentration (MIC) of 32 µg/mL (≈ 128 µM). Also, the outcome in experiment [2], in [4], in [5], in experiment [6], in [8] and in experiment [12] was Active. Moreover, in [14], the outcome was Active.
